Data set [1] is described as follows: Viscosity and estimated capillary number of fibrin sealant components and mixes (squeezing regime). Type of data set: physicochemical. As to conditions: at 130 s^−1. The procedure: For these experiments, the experimental device and set-up was the same as described above. However, the liquid which is segmented by air is a mix. Raw products are fibrinogen (with methylene blue as coloring agent) and thrombin from TISSEEL kit which have to be mixed prior to segmentation. A Duploject system was applied which can be completed with a mixing device upstream the T-junction.
Under the “squeezing” regime of segmentation, the viscosities in the following table are calculated for different components, as well as the corresponding capillary numbers for mixes.

Data set [2] can be described thus: Doxorubicin living time (stability), concentration followed by fluorescence. Type of data set: physicochemical. As to conditions: in presence of fibrin. From the text:
DX has some fluorescence properties which can easily be used to measure its concentration in a solution. Indeed, excited with a 470 nm light, it emits a 593 light which intensity depends on DX concentration.

Turning to `[Ca+2].[Cl-].[Cl-]` [CaCl2 (40 μmol/ml), CaCl2], the Viscosity in data set [1] is 1.3 cP.

For `COc1cccc2c1C(=O)c1c(O)c3c(c(O)c1C2=O)C[C@@](O)(C(=O)CO)C[C@@H]3O[C@H]1C[C@H](N)[C@H](O)[C@H](C)O1` [DX, Doxorubicin], the DX living time result in data set [2] is reported as “higher than 14 days”.

These data come from patent US20130149740A1, “METHOD FOR THE PRODUCTION OF A POLYMERIZED PRODUCT” (Baxter Healthcare S.A., priority 2011, published 2013).
